# Laboratory results taken from ChEMBL document CHEMBL1201862, “PubChem BioAssay data set” (2004).
#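 1) Cells in 96-well plates. 2) Compound, 48 h, 5 concentrations. 3) Linear interpolation between surrounding doses. 4) Unreached endpoint = highest concentration. At the GI50, growth is halved.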 Active and inactive are the calls of the source. Rule as the data show it: active = GI50 up to about 1.1 µM and inactive = higher.
# How the values were obtained:
# Assay in all cases: NCI tumour cell line growth inhibition, 48 h
# [1] = tested on: 786-0
# [2] = tested on: A498
# [3] = tested on: ACHN
# [4] = tested on: CCRF-CEM
# [5] = tested on: HCC 2998
# [6] = tested on: HCT-15
# [7] = tested on: HOP-92
# [8] = tested on: HT-29
# [9] = tested on: IGROV-1
# [10] = tested on: LOX IMVI
# [11] = tested on: M14
# [12] = tested on: NCI-H460
# [13] = tested on: OVCAR-3
# [14] = tested on: OVCAR-4
# [15] = tested on: RPMI-8226
# [16] = tested on: RXF 393
# [17] = tested on: SF-295
# [18] = tested on: SF-539
# [19] = tested on: SNB-75
# [20] = tested on: UACC-62
SMILES,GI50 [1],GI50 [2],GI50 [3],GI50 [4],GI50 [5],GI50 [6],GI50 [7],GI50 [8],GI50 [9],GI50 [10],GI50 [11],GI50 [12],GI50 [13],GI50 [14],GI50 [15],GI50 [16],GI50 [17],GI50 [18],GI50 [19],GI50 [20]
N#CC(C(=N/O)/C(=N\O)C(C#N)c1ccccc1)c1ccccc1 (stereo unspecified),> 100 µM (inactive),> 100 µM (inactive),> 100 µM (inactive),> 100 µM (inactive),> 100 µM (inactive),> 100 µM,> 100 µM (inactive),> 100 µM (inactive),> 100 µM (inactive),87.3 µM (inactive),> 100 µM (inactive),> 100 µM (inactive),> 100 µM (inactive),> 100 µM (inactive),> 100 µM (inactive),> 100 µM (inactive),> 100 µM (inactive),> 100 µM (inactive),> 100 µM (inactive),> 100 µM (inactive)
N#CC(Sc1ccccc1)C(N)=O (stereo unspecified),> 100 µM (inactive),> 100 µM (inactive),,> 100 µM (inactive),> 100 µM (inactive),> 100 µM,> 100 µM (inactive),> 100 µM (inactive),> 100 µM (inactive),> 100 µM (inactive),> 100 µM (inactive),> 10 µM (inactive),> 100 µM (inactive),> 100 µM (inactive),> 100 µM (inactive),> 100 µM (inactive),> 100 µM (inactive),> 100 µM (inactive),> 100 µM (inactive),> 100 µM (inactive)
O=[N+]([O-])c1ccc(C2NC(=S)NC3c4cc([N+](=O)[O-])ccc4CCCC23)cc1 (stereo unspecified),97.1 µM (inactive),76.7 µM (inactive),63.4 µM (inactive),39.4 µM (inactive),> 100 µM (inactive),> 100 µM,15.4 µM (inactive),> 100 µM (inactive),36.9 µM (inactive),> 100 µM (inactive),> 100 µM (inactive),> 100 µM (inactive),40.7 µM (inactive),56.4 µM (inactive),58.9 µM (inactive),18.2 µM (inactive),46.6 µM (inactive),39.1 µM (inactive),16.6 µM (inactive),31.2 µM (inactive)
CC(C)(C)OC(=O)N[C@H]1CC2(C=C(Cl)C(=O)C(Cl)=C2)OC1=O,14.9 µM (inactive),4.18 µM (inactive),14.6 µM (inactive),1.38 µM (inactive),16.6 µM (inactive),14.2 µM,16.9 µM (inactive),11.5 µM (inactive),18.7 µM (inactive),13.2 µM (inactive),14.4 µM (inactive),24.3 µM (inactive),14.8 µM (inactive),16.3 µM (inactive),2.65 µM (inactive),10.1 µM (inactive),21.9 µM (inactive),21.1 µM (inactive),20.5 µM (inactive),16.5 µM (inactive)
[N-]=[N+]=NCC(O)Cn1cnc2c(NC(=O)c3ccccc3)ncnc21 (stereo unspecified),41.8 µM (inactive),> 100 µM (inactive),> 100 µM (inactive),> 100 µM (inactive),> 100 µM (inactive),> 100 µM,> 100 µM (inactive),> 100 µM (inactive),> 100 µM (inactive),> 100 µM (inactive),> 100 µM (inactive),> 100 µM (inactive),,> 100 µM (inactive),> 100 µM (inactive),> 100 µM (inactive),> 100 µM (inactive),> 100 µM (inactive),> 100 µM (inactive),> 100 µM (inactive)
Cc1ccc(C(C2C(=O)N(C)C(=O)N(C)C2=O)C(F)(F)C(=O)N(C)C)cc1 (stereo unspecified),> 100 µM (inactive),> 100 µM (inactive),> 100 µM (inactive),> 100 µM (inactive),> 100 µM (inactive),> 100 µM,> 100 µM (inactive),,,> 100 µM (inactive),> 100 µM (inactive),> 100 µM (inactive),> 100 µM (inactive),> 100 µM (inactive),> 100 µM (inactive),> 100 µM (inactive),> 100 µM (inactive),45.3 µM (inactive),> 100 µM (inactive),> 100 µM (inactive)
COc1cccc(-c2cc(O)c3cc4c(cc3n2)OCO4)c1,0.107 µM (active),0.069 µM (active),0.183 µM (active),0.0757 µM (active),0.182 µM (active),0.118 µM,18 µM (inactive),0.144 µM (active),0.366 µM (active),0.0857 µM (active),0.0463 µM (active),0.142 µM (active),0.038 µM (active),0.938 µM (active),0.492 µM (active),0.0452 µM (active),0.0818 µM (active),0.0603 µM (active),0.0424 µM (active),0.0531 µM (active)
